Experimental data reported in patent US9290487B2, “Pharmaceutical composition for treating diabetes” (Ajinomoto Co., Inc., priority 2011, dated 2016).

Molecular target: human GYS1 (glycogen synthase) (Homo sapiens (Human), UniProt P13807)
Test: Measurement of glycogen synthase activity (coupled pyruvate kinase/lactate dehydrogenase assay, absorbance at 340 nm)
Format: biochemical
Details: concentration inducing relative activity of 50% (100% = Ex. 1 of WO/2011/058154 at 10 μM)
Procedure: A human GYS1 expression plasmid (pCDNA3.1(+)-hGYS1) was constructed by the following method. Using a human skeletal muscle cDNA of Human MTC Panel I (Takara Bio Inc., 636742) as a template, a human GYS1 gene was amplified by a PCR method using cloning primers (Forward Primer: ATGCCTTTAAACCGCAC (SEQ ID NO: 1), Reverse Primer: TTAGTTACGCTCCTCGC (SEQ ID NO: 2)). Using the amplified human GYS1 sequence as a template, a restriction enzyme sequence was added by a PCR method using sub-cloning primers (Forward Primer: […] (SEQ ID NO: 3), Reverse Primer: […] (SEQ ID NO: 4)). Then, the human GYS1 gene was introduced between a Xho I site and a Xba I site of pCDNA3.1(+) (Invitrogen Corporation, V790-20).
Glycogen synthase was prepared by the following method according to the published article (THE JOURNAL OF BIOLOGICAL CHEMISTRY Vol. 269, No. 41, 25534-25542, 1994). Human kidney-derived HEK293T cells were seeded in a dish (Thermo Fisher Scientific Inc., 168381) using a 10% FBS-containing DMEM (Nacalai Tesque, Inc., 0845874) medium, and cultured overnight. Then, using Lipofectamine LTX (Invitrogen Corporation, 15338-100), the human GYS1 expression vector was transfected according to the attached manual. After culturing under conditions of 37° C. and 5% CO2 for 2 days, the resultant was dissolved in a lysis buffer (50 mM Tris-HCl (pH 8.0), 10 mM EDTA, 2 mM EGTA, 100 mM NaF, 1 mM PMSF, 1 mM DTT, 1× Complete (Roche Diagnostics K. K., 1873580)), homogenized, and then centrifuged at 16000×g at 4° C. for 15 minutes. To the precipitated fraction, a lysis buffer was added. Re-dissolved fractions were used as glycogen synthase for evaluation.
The glycogen synthase activity was measured by the following method. To a polystyrene 96-well plate, a solution containing 30 mM glycylglycine (pH 7.3), 40 mM KCl, 20 mM MgCl2, 9.2% DMSO containing one of the test compounds at various concentrations, and 10 mM glucose-6-phosphate (Sigma-Aldrich Corporation, G7879) was added by 12 μL/well.
Next, a substrate solution containing 30 mM glycylglycine (pH 7.3), 4.3 mg/mL of glycogen (Sigma-Aldrich Corporation, G8876), 21.6 mM UDP-glucose (Sigma-Aldrich Corporation, U4625), 21.6 mM phosphoenolpyruvic acid (Sigma-Aldrich Corporation, P0564), and 4.05 mM NADH (Sigma-Aldrich Corporation, N8129) was added by 18 μL/well.
Further, an enzyme solution containing 50 mM Tris-HCl (pH 8.0), 27 mM DTT (Nacalai Tesque, Inc., 14128-04), 0.2 mg/mL of bovine serum albumin, 0.17 mg/mL of the glycogen synthase, 1.5 μL of a pyruvate kinase/lactate dehydrogenase solution (Sigma-Aldrich Corporation, P0294) was added by 18 μL/well to prepare a reaction solution. After the reaction solution was incubated (at 30° C. for 25 minutes for Examples 1 to 10, at 37° C. for 20 minutes for Examples 11 to 75), the absorbance at 340 nm was measured using Benchmark Plus (Bio-Rad Laboratories, Inc.).
The activities of the test compounds were calculated by the following method. The change in the absorbance (ΔA340) was calculated by subtracting the absorbance at 340 nm of the reaction solution containing the compound and DMSO from the absorbance at 340 nm of a reaction solution not containing the compound but containing only DMSO. The ΔA340 of the reaction solution containing the compound of Example 1 in WO/2011/058154 at the final concentration of 10 μM was taken as 100% to calculate the relative activity (%) of the test compounds at various concentrations. EC50 representing the concentration of the compound which induces an increase in the relative activity to 50% was calculated using XLfit (idbs).

[1] = incubation at 37° C. for 20 minutes (Examples 11 to 75)

Chain of human GYS1 (glycogen synthase) (P13807 whole entry): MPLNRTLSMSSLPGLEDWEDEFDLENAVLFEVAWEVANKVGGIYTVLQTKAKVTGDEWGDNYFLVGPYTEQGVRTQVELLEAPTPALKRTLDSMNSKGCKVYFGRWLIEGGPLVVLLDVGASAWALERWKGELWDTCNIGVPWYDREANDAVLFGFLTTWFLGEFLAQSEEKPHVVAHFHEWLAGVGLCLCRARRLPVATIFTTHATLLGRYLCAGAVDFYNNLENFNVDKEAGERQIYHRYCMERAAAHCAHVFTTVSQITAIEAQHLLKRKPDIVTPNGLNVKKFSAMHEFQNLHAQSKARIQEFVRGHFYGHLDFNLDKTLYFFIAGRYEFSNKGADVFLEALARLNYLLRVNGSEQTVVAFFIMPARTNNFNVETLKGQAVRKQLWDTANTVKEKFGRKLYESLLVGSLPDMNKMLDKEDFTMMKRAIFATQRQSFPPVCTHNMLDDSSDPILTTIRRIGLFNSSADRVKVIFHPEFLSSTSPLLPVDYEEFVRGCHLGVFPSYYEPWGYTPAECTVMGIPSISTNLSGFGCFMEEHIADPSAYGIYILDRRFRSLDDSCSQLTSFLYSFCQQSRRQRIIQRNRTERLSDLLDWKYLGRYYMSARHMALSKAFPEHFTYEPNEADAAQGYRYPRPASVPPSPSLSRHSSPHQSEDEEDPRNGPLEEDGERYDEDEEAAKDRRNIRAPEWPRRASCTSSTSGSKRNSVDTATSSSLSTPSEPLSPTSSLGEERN

Row | SMILES | EC50 [1] [nM] | EC50 (incubation at 30° C. for 25 minutes (Examples 1 to 10)) [nM]
1 | N#Cc1cc2c(F)c(F)cc(-c3ccc(OCc4cccc(C(=O)N5CCC[C@H]5C(=O)O)c4)cc3)c2s1 [compound of Ex. 67, 1-(3-{[4-(2-cyano-4,5-difluoro-1-benzothien-7-yl)phenoxy]methyl}benzoyl)-L-proline] | 590 | 
2 | Cc1csc2c(-c3ccc(OCc4cccc(C(=O)N5CCC[C@H]5C(=O)O)c4)cc3)cc(F)c(F)c12 [compound of Ex. 55, 1-(3-{[4-(4,5-difluoro-3-methyl-1-benzothien-7-yl)phenoxy]methyl}benzoyl)-L-proline] | 85 | 
3 | O=C(O)[C@@H]1CCCN1C(=O)c1cccc(COc2ccc(-c3ccc(F)c4[nH]ccc34)cc2)c1 [compound of Ex. 29, 1-(3-{[4-(7-fluoro-1H-indol-4-yl)phenoxy]methyl}benzoyl)-L-proline] | 230 | 
4 | O=C(O)[C@@H]1CCCN1C(=O)c1cccc(COc2ccc(-c3cc(F)c(F)c4ccoc34)cc2F)c1 [compound of Ex. 60, 1-(3-{[4-(4,5-difluoro-1-benzofuran-7-yl)-2-fluorophenoxy]methyl}benzoyl)-L-proline] | 160 | 
5 | Cc1cc2cccc(-c3ccc(OCc4cccc(C(=O)N5CCC[C@H]5C(=O)O)c4)cc3)c2o1 [compound of Ex. 8] |  | 820
6 | C=CCOc1cc(F)c(F)cc1-c1ccc(OCc2cccc(C(=O)N3CCC[C@H]3C(=O)O)c2)cc1 [compound of Ex. 36, 1-[3-({[2′-(allyloxy)-4′,5′-difluorobiphenyl-4-yl]oxy}methyl)benzoyl]-L-proline] | 110 | 
7 | [2H]C([2H])([2H])Oc1cc(F)c(F)cc1-c1ccc(OCc2cccc(C(=O)N3CCC[C@H]3C(=O)O)c2)cc1 [compound of Ex. 37, 1-(3-{[(4′,5′-difluoro-2′-d3 methoxybiphenyl-4-yl)oxy]methyl}benzoyl)-L-proline] | 10 | 
8 | O=C(O)[C@@H]1CCCN1C(=O)c1cccc(COc2ccc(-c3cc(F)c(F)c4[nH]ccc34)cc2)c1 [compound of Ex. 33, 1-(3-{[4-(6,7-difluoro-1H-indol-4-yl)phenoxy]methyl}benzoyl)-L-proline] | 34 | 
9 | O=C(O)[C@@H]1CCCN1C(=O)c1cccc(COc2ccc(-c3cc(F)c(F)c4occc34)cc2)c1 [compound of Ex. 30, 1-(3-{[4-(6,7-difluoro-1-benzofuran-4-yl)phenoxy]methyl}benzoyl)-L-proline] | 140 | 

The remaining lines, values ahead:

Row | EC50 [1] [nM] | EC50 (incubation at 30° C. for 25 minutes (Examples 1 to 10)) [nM] | SMILES
10 | 100 |  | O=C(O)[C@@H]1CCCN1C(=O)c1cccc(COc2ccc(-c3cc(F)c(F)c4c3C=CCO4)cc2)c1 [compound of Ex. 31, 1-(3-{[4-(7,8-difluoro-2H-chromen-5-yl)phenoxy]methyl}benzoyl)-L-proline]
11 | 220 |  | C[C@@H](C(=O)O)N(C)C(=O)c1cccc(COc2ccc(-c3cc(F)c(F)c4ccoc34)cc2)c1 [compound of Ex. 63, N-(3-{[4-(4,5-difluoro-1-benzofuran-7-yl)phenoxy]methyl}benzoyl)-N-methyl-L-alanine]
12 | 65 |  | COCc1cc2c(F)c(F)cc(-c3ccc(OCc4cccc(C(=O)N5CCC[C@H]5C(=O)O)c4)cc3)c2o1 [compound of Ex. 73, 1-[3-({4-[4,5-difluoro-2-(methoxymethyl)-1-benzofuran-7-yl]phenoxy}methyl)benzoyl]-L-proline]
13 | 140 |  | NC(=NO)c1cc2c(F)c(F)cc(-c3ccc(OCc4cccc(C(=O)N5CCC[C@H]5C(=O)O)c4)cc3)c2o1 [compound of Ex. 57, 1-{3-[(4-{2-[amino(hydroxyimino)methyl]4,5-difluoro-1-benzofuran-7-yl}phenoxy)methyl]benzoyl}-L-proline]
14 | 150 |  | C#CCOc1cc(-c2ccc(OCc3cccc(C(=O)N4CCC[C@H]4C(=O)O)c3)cc2)cc(F)c1F [compound of Ex. 47, 1-[3-({[3′,4′-difluoro-5′-(prop-2-yn-1-yloxy)biphenyl-4-yl]oxy}methyl)benzoyl]-L-proline]
15 | 350 |  | O=C(O)[C@@H]1CCCN1C(=O)c1cccc(COc2ccc(-c3cc(F)cc4ccoc34)cc2)c1 [compound of Ex. 12, 1-(3-{[4-(5-fluoro-1-benzofuran-7-yl)phenoxy]methyl}benzoyl)-L-proline]
